Measured values: patent US9981983B2, “Thienopyranones as kinase inhibitors” (SignalRx Pharmaceuticals, Inc., priority 2008, dated 2018)

How the values were obtained:
Format in all cases: cell-based
[1] = tested on: H1299 (Lung); test: Cell proliferation MTS assay, H1299; conditions: Homo sapiens, NCI-H1299, 72 hours
Method: (§1) All cell lines were obtained from ATCC and cultured and plated according to ATCC recommendations. Cells were cultured in complete culture media containing 10% heat-inactivated fetal bovine serum (FBS, Mediatech, Inc.). For adherent cell lines, once cells reached 70% confluency, they were trypsinized and resuspended in phenol red free RPMI media (Mediatech, Inc.) plus 10% heat-inactivated FBS (assay buffer) and 100 μL aliquots were plated into each well of 96-well microtiter plates at a final density of 1,000-2,000 cells/well. Cells were incubated overnight at 37° C. in 5% CO2, and treated with test compounds on the next day. For suspension cell lines, cells were resuspended in assay buffer, plated into 96-well microtiter plates at a density of 10^4-10^5 cells/well/100 μL, and treatment was started on the same day. Cells were treated with vehicle (DMSO) and test compounds for 72 hours at concentration of 100, 70, 40, 20, 10, 5, 2.5, 1.25, 0.5 and 0.2 μM in four replicates at 37° C. in 5% CO2.

[2] = tested on: DU145 (Prostate); test: Cell proliferation MTS assay, DU145; conditions: Homo sapiens, DU-145, 72 hours
Method: as §1

[3] = tested on: HCT116 (Colon); test: Cell proliferation MTS assay, HCT116; conditions: Homo sapiens, HCT-116, 72 hours
Method: as §1

[4] = tested on: MCF7 (Breast); test: Cell proliferation MTS assay, MCF7; conditions: Homo sapiens, 72 hours
Method: as §1

[5] = tested on: U87MG (Brain); test: Cell proliferation MTS assay, U87MG; conditions: Homo sapiens, U-87 MG, 72 hours
Method: as §1

[6] = tested on: OVCAR3 (Ovary); test: Cell proliferation MTS assay, OVCAR3; conditions: Homo sapiens, OVCAR-3, 72 hours
Method: as §1

[7] = tested on: RPM18226 (Myeloma); test: Cell proliferation MTS assay, RPM18226; conditions: 72 hours
Method: as §1

[8] = tested on: HUVEC (Endothelial-noncancer); test: Cell proliferation MTS assay, HUVEC; conditions: Homo sapiens, 72 hours
Method: as §1

[9] = tested on: H1299 cells; test: Cellular proliferation (Example B method), H1299; conditions: Homo sapiens, NCI-H1299; H1299, non-small cell lung cancer
Method: PC3 cells were obtained from the American Type Culture Collection (ATCC, Manassas, Va., Cat.# CRL-1435) Two thousand cells from the prostate cancer line PC3 were placed in 50 μL of complete RPMI 1640 media (Invitrogen, Carlsbad, Calif., Cat.#22400-105) with 10% fetal bovine serum (Invitrogen, Carlsbad, Calif., Cat.#10438-026) into each well of 96 well cell culture plates in a hexaplicate sampling pattern. A 50 μL aliquot of test compound (prepared from stock test compounds in DMSO diluted into media) was added to the appropriate well such that the final concentrations of test compound were 200, 40, 8, 1.6, 0.32, 0.064, 0.0128, 0.00256, and 0 μM and the final DMSO concentration was less than or equal to 0.2%.
The plates were incubated for 72 hours 37° C. in an atmosphere of 5% CO2. At the end of this time a 10 μL aliquot of WST solution (Roche Applied Science, Mannheim, Germany) was added into each of the wells. Cells were exposed to the WST solution for 4 hours. A SpectraMax Plus spectrophotometric plate reader (Molecular Devices, Sunnydale, Calif.) was then used to measure the optical density at 450 nm (OD450 nm). Sigmoidal curves were drawn for the dose responses and IC50 values were calculated using the software package GraphPad Prism4 (GraphPad Software, Inc., San Diego, Calif.).
Several other cancer cell lines were obtained from ATCC and grown according to their recommendations and treated with test compounds to obtain the concentration of test compound that inhibited the cellular proliferation by 50% of no-treatment controls. These IC50 values (μM) are listed in Table 7 below obtained by the methods described in Example B: […]

[10] = tested on: LNCaP cells; test: Oxidative stress of prostate cancer cells (8-iso-Prostaglandin F2α ELISA); conditions: for OD450 nm reading / 8-iso-Prostaglandin F2α generated: 20 μM; for 8-iso-Prostaglandin F2α generated: control 1.5 μg/mL
Method: LNCaP cells were obtained from the American Type Culture Collection (ATCC, Manassas, Va., Cat.# CRL-1740). 3.5 million cells from the prostate cancer line LNCaP were placed into each of three 10 cm culture dishes and allowed to grow overnight in complete RPMI 1640 media (Invitrogen, Carlsbad, Calif., Cat.#22400-105) with 10% fetal bovine serum (Invitrogen, Carlsbad, Calif., Cat#10438-026). Test compound was added into the dishes to the concentration of 0 and 20 μM and allowed to incubate at 37° C. in a 5% CO2 atmosphere for 2 and 24 hours. Following this the pH of the cell culture media was adjusted down to 3.5 with 2M HCl. After sitting at 4° C. for 15 minutes, the cell culture media from each culture dishes was applied to each of three C18 reverse phase columns (Biotage ISOLUTE, Part #220-0020-B, Lot #5223506B2A, www.biotage.com) which were prewashed with 10 mL/column of ethanol followed by 10 mL/column of deionized water. The loaded columns were then washed with 10 mL/column of water, followed by 10 mL/column of 15% ethanol, and finally 10 mL/column hexane. The desired samples were then eluted from the columns by addition of 10 mL/column ethyl acetate. The ethyl acetate was then evaporated to dryness using a rotating evaporator. Each sample was then dissolved in 500 μL of Assay Buffer provided in BioMol's Isoprostane Oxidative Stress Assay Kit A (Cat. # AK150-0001, Lot #3-08010825). Using the kit reagents according to the manufacturer's instructions the oxidative product 8-iso-Prostaglandin F2α was quantitated by ELISA. Also, using reagents from the kit a standard curve of oxidation product (8-iso-Prostaglandin F2α) versus optical density reading at 450 nm. From this curve optical density readings from the test samples were converted to μg/mL of the oxidation marker 8-iso-Prostaglandin F2α. This kit from BioMol is designed to determine the amount of the 8-iso-Prostaglandin F2α produced as a marker for the amount of oxidative stress experienced by the cells.

For `O=c1cc(N2CCOCC2)oc2c(-c3ccc4c(c3)OCCO4)csc12` [Compound 28, 3-(2,3-dihydrobenzo[b][1,4]dioxin-6-yl)-5-morpholino-7H-thieno[3,2-b]pyran-7-one], the IC50 [1] was 2.43 µM, the IC50 [2] was 2.07 µM and the IC50 [3] was 2.2 µM. It also gave an IC50 [4] of 2.27 µM, an IC50 [5] of 1.92 µM and an IC50 [6] of 1.24 µM. It also gave an IC50 [7] of 0.73 µM, an IC50 [8] of 1.23 µM and an IC50 [9] of 0.951 µM. The OD450 nm reading ([10]; 2 hours exposure) was 1.01 units, the “8-iso-Prostaglandin F2α generated” value ([10]; 2 hours) was 18.0 µg/mL and the OD450 nm reading ([10]; 24 hours exposure) was 0.96 units. The “8-iso-Prostaglandin F2α generated” value ([10]; 24 hours) was 21.0 µg/mL, the “increase of oxidation marker 8-iso-Prostaglandin F2α relative to untreated controls” value ([10]; 2 hours) was 12 fold and the “increase of oxidation marker 8-iso-Prostaglandin F2α relative to untreated controls” value ([10]; 24 hours) was 14 fold.
